Measured values published in BigSolDB 2.1.

C[C@H]1[C@H](C)CC[C@]2(C(=O)O)CC[C@]3(C)C(=CC[C@@H]4[C@@]5(C)CC[C@H](O)C(C)(C)[C@@H]5CC[C@]43C)[C@H]12
solubility (mole fraction) (in acetone, 278.15 K): 0.000384
solubility (mole fraction) (in acetone, 283.15 K): 0.000473
solubility (mole fraction) (in acetone, 288.15 K): 0.00058
solubility (mole fraction) (in acetone, 293.15 K): 0.000707
solubility (mole fraction) (in acetone, 298.15 K): 0.000836
solubility (mole fraction) (in acetone, 303.15 K): 0.001
solubility (mole fraction) (in acetone, 308.15 K): 0.00119
solubility (mole fraction) (in acetone, 313.15 K): 0.00139
solubility (mole fraction) (in acetone, 318.15 K): 0.00162
solubility (mole fraction) (in acetone, 323.15 K): 0.00187
solubility (mole fraction) (in methanol, 278.15 K): 0.000447
solubility (mole fraction) (in methanol, 283.15 K): 0.000505
solubility (mole fraction) (in methanol, 288.15 K): 0.000579
solubility (mole fraction) (in methanol, 293.15 K): 0.000662
solubility (mole fraction) (in methanol, 298.15 K): 0.000746
solubility (mole fraction) (in methanol, 303.15 K): 0.000842
solubility (mole fraction) (in methanol, 308.15 K): 0.000955
solubility (mole fraction) (in methanol, 313.15 K): 0.00107
solubility (mole fraction) (in methanol, 318.15 K): 0.00121
solubility (mole fraction) (in methanol, 323.15 K): 0.00135
solubility (mole fraction) (in water, 278.15 K): 1.16e-07
solubility (mole fraction) (in water, 283.15 K): 1.34e-07
solubility (mole fraction) (in water, 288.15 K): 1.55e-07
solubility (mole fraction) (in water, 293.15 K): 1.76e-07
solubility (mole fraction) (in water, 298.15 K): 2.02e-07
solubility (mole fraction) (in water, 303.15 K): 2.28e-07
solubility (mole fraction) (in water, 308.15 K): 2.57e-07
solubility (mole fraction) (in water, 313.15 K): 2.88e-07
solubility (mole fraction) (in water, 318.15 K): 3.18e-07
solubility (mole fraction) (in water, 323.15 K): 3.54e-07
